{"source": "BindingDB's records for patent US20230295182", "about": "(Idorsia Pharmaceuticals, 2023)"}
{"molecular_target": "Galectin-3 (Homo sapiens, UniProt P17931)", "sequence (P17931 whole entry)": "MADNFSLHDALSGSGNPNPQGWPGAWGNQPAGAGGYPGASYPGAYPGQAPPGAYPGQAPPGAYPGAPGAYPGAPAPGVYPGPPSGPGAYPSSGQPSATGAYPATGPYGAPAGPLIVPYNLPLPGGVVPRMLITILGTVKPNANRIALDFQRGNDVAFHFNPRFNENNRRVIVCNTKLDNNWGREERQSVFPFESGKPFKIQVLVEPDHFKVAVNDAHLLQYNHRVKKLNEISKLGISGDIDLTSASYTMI", "assay": "Evaluation of Compound Inhibitory Activity (IC50)", "description": "Briefly, compounds are serially diluted in DMSO (working dilutions). ASF-coated 384 well plates are supplemented with 22.8 uL/well of biotinylated hGal-3 or hGal-1 in assay buffer (i.e. 300-1000 ng/mL biotinylated hGal-3 or hGal-1) to which 1.2 uL of compound working dilutions are added and mixed. Plates are incubated for 3 hours at 4 C., then washed with cold assay buffer (3x50 uL), incubated for 1 hour with 25 uL/well of a streptavidin-peroxidase solution (diluted in assay buffer to 80 ng/mL) at 4 C., followed by further washing steps with assay buffer (3x50 uL). Finally, 25 µL/well of ABTS substrate is added.", "units": {"IC50": "nM"}}
{"compound": "CO[C@@H]1[C@@H](n2cc(-c3cc(F)c(F)c(F)c3)nn2)[C@@H](O)[C@@H](CO)O[C@@H]1CC1=NOC2(CCC(C)CC2)C1", "note": "(stereo partly drawn) [US20230295182, Example 1.30]", "IC50": 500}
{"compound": "OC[C@H]1O[C@H](CC2=NOC3(CCCCC3)C2)[C@H](OCC(F)F)[C@@H](n2cc(-c3cc(F)c(F)c(F)c3)nn2)[C@H]1O", "note": "[US20230295182, Example 1.67]", "IC50": 230}
{"compound": "CO[C@@H]1[C@@H](n2cc(-c3ccc(C)c(F)c3F)nn2)[C@@H](O)[C@@H](CO)O[C@@H]1CN1CC2(CCCCC2)NC1=O", "note": "[US20230295182, Example 4.01]", "IC50": 46}
